The record followed here is US8815219B2, “Sunless tanning with pyranones and furanones” (Conopco, Inc., priority 2009, dated 2014).

Series [1] is described as follows: Visual observation and photographs of tanning rate (color formation) in DHA/glycine compositions. The conditions noted are these: Allomaltol 0.5-3 wt.% added to 5% DHA, 5% glycine in water; visual observations and photographs. The text has this: (§1) Compositions comprising Allomaltol were made by mixing the following: […]
Series [2] can be described thus: Color development of DHA/glycine compositions by spectrophotometer at 400 nm. The conditions noted are these: for enhancement in tanning: Example 6, conclusion from 6 and 27 hour results, DHA 5%, glycine 5%. The protocol: Color development for the above was also assessed using a spectrophotometer set at a wavelength of 400 nm. […] Compositions comprising KOjic acid or Allomaltol were made by mixing the following ingredients at room temperature. […] Visual observation and photographs were taken after 27 hours of mixing. […] 35%, 38% and 19%, respectively, as determined by assessing the Samples with a Spectrophotometer, wavelength 400 nm. […] Compositions were made by mixing the following ingredients at room temperatures. […] All percents are by weight. The Samples were assessed for color development (with a Spectrophometer, 400 nm wavelength) three (3) days after mixing. […] The following compositions were mixed in a manner similar to the one described in Example 7. The Samples were assessed (with a Spectrophotometer, 400 nm wavelength) fifteen (15) hours after mixing.

Series [3] in a line: Dissolution of Allomaltol in the aqueous composition. The format is physicochemical. The conditions noted are these: 3 wt.% Allomatol in 5% DHA, 5% glycine, balance water (Example 3 Sample 5).
Text: as §1

Setting [4] is: 400 nm, after 20 hours of mixing, 5% DHA, 5% glycine.

Molecules are shown by their SMILES.

On to `Cc1cc(=O)c(O)co1` [Allomaltol, 3-hydroxy-6-methyl, 4-pyrone], for which, in series [1], the “tanning rate (color formation)” value is reported as “enhanced”. In series [2] (setting [4]), the “color development at 3% Allomaltol greater than at 0.5% Allomaltol” value came out at 45%, the “color development at 3% Allomaltol greater than at 1% Allomaltol” value worked out at 40%, the “color development at 3% Allomaltol greater than at 2% Allomaltol” value was 20% and the “color development at 3% Allomaltol greater than composition deplete of adjuvant” value is given as 60%. In addition, the enhancement in tanning result in series [2] is given as “enhancement in tanning”. Further, in series [3], the Allomatol dissolved result was “***= circa 95% Allomatol was dissolved”.

Consider `Cc1cc(=O)c(NCC(=O)O)co1` [adjuvant], for which, in series [2] (Example 8, 0.5% adjuvant, 5% glycine, fifteen hours after mixing), the “color body generation with glycine and no DHA” value is on record as “No color body generation”.

As for `O=c1cc(CO)occ1O` [Kojic acid], the enhancement in tanning result in series [2] is reported as “enhancement in tanning”.

As to `O=c1cc(CCl)occ1O` [chlorinated adjuvant], the “color body generation with glycine and no DHA” value in series [2] (Example 7, 0.25% chlorinated adjuvant, 5% glycine, three days after mixing) was “No color body generation”.
